Source: US8455214B2, “Methods for determining chemotherapeutic agents targeting alpha-glucan pathways and uses thereof” (priority 2009, dated 2013)

Test system: Mtb ΔRv3032 mutant
Assay type: cell-based

OCC1=C[C@@H](N[C@H]2C[C@H](CO)[C@@H](O[C@H]3O[C@@H](CO)[C@H](O)[C@@H](O)[C@@H]3O)[C@H](O)[C@H]2O)[C@H](O)[C@@H](O)[C@@H]1O [VA, Validamycin A]
killing (reduction of viability, CFU) (over 7 days, cultures inoculated at 5×10^6 CFU/ml): 3 log
effect of over-expression of the putative target TreS (ΔRv3032 mutant with TreS from an integrative single-copy plasmid): marked resistance
